Reference: patent US20030216569A1, “Method of making HIV protease inhibitors” (priority 1993, published 2003)
Where two headings read alike, the source gives them in different places.

Molecular target: HIV-1 protease (Human immunodeficiency virus type 1 group M subtype B, UniProt P04585)
Test: Fluorescence HIV-1 Protease Inhibitor Assay (Pandex)
Type: biochemical
Parameters: made in house; host or cells: E. coli K12 L507/pHP10D (NRRL B-18560)
Experimental: A. Preparation of Protease and Gag Fractions
Lyophils of E. coli K12 L507/pHP10D were obtained from the Northern Regional Research Laboratory, Peoria, Ill. 61604, under the accession number NRRL B-18560 (deposited Nov. 14, 1989). The lyophils were decanted into tubes containing 10 ml LB medium (10 g Bacto-tryptone, 5 g Bacto-yeast extract, and 10 g aqueous sodium chloride per liter; the pH was adjusted to 7.5 and incubated at 32° C. overnight).
A small portion of the overnight culture was placed on LB-agar (LB medium with 15 g/L Bacto-agar) plates containing 12.5 micrograms/ml tetracycline in a manner so as to obtain a single colony isolate of E. coli K12 L507/pHP10D. The single colony obtained was inoculated into 10 ml of LB medium containing 12.5 micrograms/ml tetracycline and incubated overnight at 32° C. with vigorous shaking. The 10 ml overnight culture was inoculated into LB medium containing 12.5 micrograms/ml tetracycline and incubated at 32° C. with vigorous shaking until the culture reached mid-log phase. […]
3. Preparation of Protease Fraction
A culture of E. coli K12 L507/pHP10D was grown to mid-log phase at 32° C. in LB media containing 12.5 micrograms/ml tetracycline. The cultivation temperature was quickly elevated to 40° C. to induce gene expression, and the cells were allowed to grow for 2.5 hours at this temperature before the culture was quickly chilled on ice. The cells were centrifuged and the cell pellet was resuspended in 20 ml of 50 mmol MES buffer (pH 6.0) containing 1 mmol EDTA, 1 mmol DTT, 1 mmol PMSF and 10% glycerol (“Buffer A”). Cells were lysed by sonication using a Fischer Model 300 Dismembrator and a microtip probe. Following centrifugation at 27,000×g, the supernatant was diluted to a total volume of 60 ml with Buffer A and loaded onto a 2.0×19 cm QAE-Sepharose column (1 ml/min, 4° C.), that had been equilibrated in Buffer A. The column was washed isocratically for 180 min and then eluted with a gradient eluent of […] aqueous sodium chloride in Buffer A over 120 min. Enzymatic activity was measured by HPLC using the synthetic peptide Ser-Gln-Asn-Tyr-Pro-Ile-Val as described in Margolin et al., Biochem. Biophys. Res. Commun., 167, 554-560 (1990); the production of the p1 peptide (Ser-Gln-Asn-Tyr) was measured.
The active fractions were combined, adjusted to […] 1.2M in ammonium sulfate, and applied to a 2.0×18 cm hexyl agarose column that had been equilibrated in Buffer A containing 1.2M ammonium sulfate. The sample was loaded at a flow rate of 1 ml/min at 4° C., washed with the equilibration buffer for 240 min (1 ml/min) and then eluted using a reverse linear gradient of 1.2-0M ammonium sulfate in Buffer A for 120 min at the same flow rate. The column was then washed isocratically in Buffer A for 120 min.
The active fractions were combined, concentrated to 10 ml using an Amicon stirred cell with a YM-10 membrane and then applied to a MonoS cation exchange column (1.0×10 cm) that had been equilibrated in Buffer A. The sample was loaded at a flow rate of 1 ml/min at 25° C. After washing isocratically for 30 min, the protease was eluted using a linear gradient of 0-0.45M aqueous sodium chloride in Buffer A over 40 min. The column was washed isocratically in Buffer A containing 0.45M aqueous sodium chloride for 30 minutes.
The active fractions were combined and concentrated to 200 microliters using an Amicon stirred cell and a YM-10 membrane and then the protease was applied to a Superose 6 size exclusion column equilibrated in Buffer A containing 0.1M aqueous sodium chloride.

[1] = normalized to positive control (=1.0), * = a calculated average, read-out: Fluorescence Assay IC50 in ng/mL (converted)
[2] = normalized to positive control (=1.0), * = a calculated average
[3] = value as run, 35B value of the same run in footnote or parentheses, read-out: Pandex IC50 ng/ml (converted)
[4] = value as run, 35B value of the same run in footnote or parentheses

SMILES | IC50 [1] [nM] | Fluorescence Assay IC50 [2] [µg/mL] | also measured
CC(C)(C)NC(=O)c1ccccc1C[C@@H](O)[C@H](CSc1ccc2ccccc2c1)NC(=O)c1cccc2c1CCNC2 (relative stereo) [Example 58, [2′R-(2′R*,3′S*)]-N-t-Butyl-2-[2′-hydroxy-3′-naphth-2-ylthiomethyl-4′-aza-5′-oxo-5′-(1″,2″,3″,4″-tetrahydroisoquinolin-5″-yl)pentyl] benzamide] | 309 | – | –
Cc1c(O)cccc1C(=O)N[C@@H](Cc1ccccc1)[C@H](O)Cc1ccccc1C(=O)NC(C)(C)C [Example 40, [2R′-(2R′*,3′S*)]-N-t-Butyl-2-[2′-hydroxy-3′-phenylmethyl-4′-aza-5′-oxo-5′-(2″methyl-3″-hydroxyphenyl)pentyl]benzamide] | 21.1 | – | –
CC(C)(C)NC(=O)c1ccccc1C[C@@H](O)[C@H](CSc1ccc2ccccc2c1)NC(=O)c1cccc2ncccc12 (relative stereo) [Example 63, [2′R-(2′R*,3′S*)]-N-t-Butyl-2-[2′-hydroxy-3′-naphth-2-ylthiomethyl-4′-aza-5′-oxo-5′-(quinolin-5″-yl)pentyl] benzamide] | 433 | – | –
CC(C)(C)NC(=O)c1ccccc1C[C@@H](O)[C@@H](CSc1ccc2ccccc2c1)NC(=O)c1cccc(O)c1 (relative stereo) [Example 51, [2′R-(2′R*,3′S*)]-N-t-Butyl-2-[2′-hydroxy-3′-naphth-2-ylthiomethyl-4′-aza-5′-oxo-5′-(3″-hydroxyphenyl)pentyl] benzamide] | – | 0.5 | –
CC(C)(C)NC(=O)c1ccccc1C[C@@H](O)[C@@H](CSc1ccc2ccccc2c1)NC(=O)c1cccc(O)c1Cl (relative stereo) [Example 56, [2′R-(2′R*,3′S*)]-N-t-Butyl-2-[2′-hydroxy-3′-naphth-2-ylthiomethyl-4′-aza-5′-oxo-5′-(2″-chloro-3″-hydroxyphenyl)pentyl] benzamide] | – | 0.094 | –
Cc1c(O)cccc1C(=O)N[C@@H](Cc1ccccc1)[C@H](O)CN1CCCC[C@H]1C(=O)NC(C)(C)C (relative stereo) [Example 6, [2S-(2R*,2′S*,3′R*)]-1-[2′-Hydroxy-3′-phenylmethyl-4′-aza-5′-oxo-5′-(2″methyl-3″-hydroxyphenyl)pentyl]piperidine-2-N-t-butylcarboxamide] | – | – | Fluorescence Assay IC50 in ng/mL [2]: 513* ng/mL
CC(C)(C)NC(=O)C1CC2CCCCC2CN1CC(O)C(Cc1ccccc1)NC(=O)c1cccc2c1CCCN2 (stereo not drawn) [Example 37, [3S-(3R*,4aR*,8aR*,2′S*,3′S*)]-2-[2′-Hydroxy-3′-phenylmethyl-4′-aza-5′-oxo-5′-[(1″,2″,3″,4″-tetrahydroquinolin-5″-yl)]pentyl] decahydroisoquinoline-3-N-y-butylcarboxamide] | 49 | – | IC50 [3]: 58.8 nM
Cc1c(O)cccc1C(=O)N[C@H](CSc1ccc2ccccc2c1)[C@H](O)Cc1ccccc1C(=O)NC(C)(C)C (relative stereo) [Example 46, [2′R-(2′R*,3′S*)]-N-t-Butyl-2-[2′-hydroxy-3′-naphth-2-ylthiomethyl-4′-aza-5′-oxo-5′-(2″-methyl-3″-hydroxyphenyl)pentyl] benzamide] | – | 0.063 | –
Cc1ccc(O)cc1C(=O)N[C@H](CSc1ccc2ccccc2c1)[C@H](O)Cc1ccccc1C(=O)NC(C)(C)C (relative stereo) [Example 72, [2′R-(2′R*,3′S*)]-N-t-Butyl-2-[2′-hydroxy-3′-naphth-2-ylthiomethyl-4′-aza-5′-oxo-5′-(2″-methyl-5″-hydroxyphenyl)pentyl] benzamide] | – | 0.63 | –
Cc1ccccc1C(=O)N[C@H](CSc1ccc2ccccc2c1)[C@H](O)Cc1ccccc1C(=O)NC(C)(C)C (relative stereo) [Example 52, [2′R-(2′R*,3′S*)]-N-t-Butyl-2-[2′-hydroxy-3′-naphth-2-ylthiomethyl-4′-aza-5′-oxo-5′-(2″-methylphenyl)pentyl] benzamide] | – | 0.281 | –
CC(C)(C)NC(=O)c1ccccc1C[C@@H](O)[C@H](CSc1ccc2ccccc2c1)NC(=O)c1cccc2cnccc12 (relative stereo) [Example 57, [2′R-(2′R*,3′S*)]-N-t-Butyl-2-[2′-hydroxy-3′-naphth-2-ylthiomethyl-4′-aza-5′-oxo-5′-(isoquinolin-5″-yl)pentyl] benzamide] | 1380 | – | –
CC(C)(C)NC(=O)[C@@H]1C[C@@H]2CCCC[C@@H]2CN1C[C@@H](O)[C@H](Cc1ccccc1)NC(=O)C1CCS(=O)(=O)C1 (relative stereo) [Example 88, [3S-(3R*, 4aR*, 8aR*, 2′S*, 3′R*)]-2-[2′-Hydroxy-3′-phenylmethyl-4′-aza-5′-oxo-5′-(tetrahydrothieno-3″-yl-1″,1″-dioxide)pentyl]-decahydroisoquinoline-3-N-t-butyl carboxamide] | – | – | Pandex % at 20 ng/ml (at 20 ng/ml): 28%
CC(C)(C)NC(=O)[C@@H]1C[C@@H]2CCCC[C@@H]2CN1C[C@@H](O)[C@H](Cc1ccccc1)NC(=O)c1ccsc1 (relative stereo) [Example 87, [3S-(3R*, 4aR*, 8aR*, 2′S*, 3′R*)]-2-[2′-Hydroxy-3′-phenylmethyl-4′-aza-5′-oxo-5′-(thieno-3″-yl)pentyl]-decahydroisoquinoline-3-N-t-butyl carboxamide] | – | – | Pandex IC50 (given as % at concentration) (at 1,000 ng/ml): 25%
Cc1c(N)cc(N)cc1C(=O)NC(Cc1ccccc1)C(O)CN1CC2CCCCC2CC1C(=O)NC(C)(C)C (stereo not drawn) [Example 9, [3S-(3R*,4aR*,8aR*,2′S*,3′R*)]-2-[2′-Hydroxy-3′-phenylmethyl-4′-aza-5′-oxo-5′-(2″-methyl-3″,5″-diaminophenyl)pentyl] decahydroisoquinoline-3N-t-butylcarboxamide] | 30.9 | – | IC50 [3]: 95.9 nM
Cc1c(O)cccc1C(=O)N[C@H](CSc1ccc2ccccc2c1)[C@H](O)Cc1ccc2ccccc2c1C(=O)NC(C)(C)C (relative stereo) [Example 48, [2′R-(2′R*,3′S*)]-N-t-Butyl-2-[2′-hydroxy-3′-naphth-2-ylthiomethyl-4′-aza-5′-oxo-5′-(2″-methyl-3″-hydroxyohenyl)pentyl]-1-naphthylamide] | – | 0.177 | –
CC(C)(C)NC(=O)[C@@H]1C[C@@H]2CCCC[C@@H]2CN1C[C@@H](O)[C@H](CSc1ccccc1)NC(=O)[C@H]1CS(=O)(=O)CN1 (relative stereo) [[3S-(3R*, 4aR*, 8aR*, 2′S*, 3′S*, 4″S)]-2-[2′-Hydroxy-3′-phenylthiomethyl-4′-aza-5′-oxo-5′-(thiazolino-4″-yl-1″,1″-dioxide)pentyl]-decahydroisoquinoline-3-N-t-butyl carboxamide] | – | – | Pandex IC50 [4]: 0.244 µg/mL
Cc1c(C(=O)N[C@@H](Cc2ccccc2)[C@H](O)CN2C[C@H]3CCCC[C@H]3C[C@H]2C(=O)NC(C)(C)C)cc[nH]c1=O (relative stereo) [Example 16, [3S-(3R*,4aR*,8aR*,2′S*,3′R*)]-2-[2′-Hydroxy-3′-phenylmethyl-4′-aza-5′-oxo-5′-(2″-oxo-3″-methyl-pyrid-4″-yl)pentyl] decahydroisoquinoline-3-N-t-butylcarboxamide] | – | 0.329 | Pandex IC50 ng/ml [4]: 125^e ng/ml
Cc1c(O)cccc1C(=O)N[C@@H](Cc1ccccc1)[C@H](O)CN1CCC[C@H]1C(=O)NC(C)(C)C (relative stereo) [Example 4, [2S-(2R*,2′S*,3′R*)]-1-[2′-Hydroxy-3′-phenylmethyl-4′-aza-5′-oxo-5′-(2″-methyl-3″-hydroxyphenyl)pentyl] pyrrolidine-2-N-t-butylcarboxamide] | – | – | Fluorescence Assay IC50 in ng/mL [2]: 1425* ng/mL
